What follows are compounds tested on DOHH2 cells (assay: Cell proliferation assay in DOHH2 cells (MTS)). Details: Homo sapiens, DOHH-2, 120 h.
Type: cell-based
Protocol: To investigate whether a compound is able to inhibit the activity of BTK in cells, a mechanism-based assay using DOHH2 (DSMZ catalog #: ACC47) cell was developed. In this assay, inhibition of BTK was detected by the inhibition of DOHH2 cells proliferation. Cells were collected and plated onto 96-well plates at the optimized cell density (5000 cells/well). Plates were incubated at 37° C., with 5% CO2 for 4 h. Compounds were serially diluted and added to the plates with the final concentrations as 10000, 3333.3, 1111.1, 370.4, 123.5, 41.2, 13.7, 4.6 and 1.5 nM. Plates were incubated at 37° C., with 5% CO2 for 120 h. An aliquot of 20 μL MTS/100 μL medium mixture solution were added to each well and the plates were incubated for exactly 2 h. The reaction was stopped by adding 25 μL 10% SDS to each well. The absorbance was measured by a microplate reader at 490 nm and 650 nm (reference wavelength). IC50 was calculated using GraphPad Prism 5.0.
Select compounds prepared as described above were assayed according to the biological procedures described herein.
For `O=C(c1ccc(Oc2ccccc2)cc1F)c1c[nH]c2ncc(F)c(N[C@@H]3CC[C@@H](CO)OC3)c12` [Example 58, (5-fluoro-4-(((3R,6S)-6-(hydroxymethyl)tetrahydro-2H-pyran-3-yl)amino)-1H-pyrrolo[2,3-b]pyridin-3-yl)(2-fluoro-4-phenoxyphenyl)methanone], the IC50 was 23 nM. `CCOc1cnc2[nH]cc(C(=O)c3ccc(Oc4ccccc4F)cc3C)c2c1N[C@@H]1CC[C@@H](CO)OC1` [Example 64, (5-ethoxy-4-(((3R,6S)-6-(hydroxymethyl)tetrahydro-2H-pyran-3-yl)amino)-1H-pyrrolo[2,3-b]pyridin-3-yl)(4-(2-fluorophenoxy)-2-methylphenyl)methanone] gave an IC50 of 1 nM. `CCOc1cnc2[nH]cc(C(=O)c3ccc(Oc4ccccc4F)cc3Cl)c2c1N[C@@H]1CC[C@@H](CO)OC1` [Example 65, (2-chloro-4-(2-fluorophenoxy)phenyl)(5-ethoxy-4-(((3R,6S)-6-(hydroxymethyl)tetrahydro-2H-pyran-3-yl)amino)-1H-pyrrolo[2,3-b]pyridin-3-yl)methanone] was tested, and the IC50 was 1 nM. In the case of `COc1cnc2[nH]cc(C(=O)c3ccc(Oc4ccccc4F)cc3)c2c1N[C@@H]1CC[C@@H](CO)OC1` [Example 73, (4-(2-fluorophenoxy)phenyl)(4-(((3R,6S)-6-(hydroxymethyl)tetrahydro-2H-pyran-3-yl)amino)-5-methoxy-1H-pyrrolo[2,3-b]pyridin-3-yl)methanone], the IC50 is reported as 1 nM. Work on `COc1cnc2[nH]cc(C(=O)c3cnc(Oc4ccccc4F)cc3C)c2c1N[C@@H]1CC[C@@H](CO)OC1` [Example 76, (6-(2-fluorophenoxy)-4-methylpyridin-3-yl)(4-(((3R,6S)-6-(hydroxymethyl)tetrahydro-2H-pyran-3-yl)amino)-5-methoxy-1H-pyrrolo[2,3-b]pyridin-3-yl)methanone] yielded an IC50 of 47 nM. With `COc1cnc2[nH]cc(C(=O)c3ccc(Oc4ccccc4F)cc3Cl)c2c1N[C@@H]1CC[C@@H](CO)OC1` [Example 77, (2-chloro-4-(2-fluorophenoxy)phenyl)(4-(((3R,6S)-6-(hydroxymethyl)tetrahydro-2H-pyran-3-yl)amino)-5-methoxy-1H-pyrrolo[2,3-b]pyridin-3-yl)methanone] the IC50 was 1 nM. `COc1cnc2[nH]cc(C(=O)c3ccc(Oc4ccccc4F)cc3C)c2c1N[C@@H]1CC[C@@H](CO)OC1` [Example 78, (4-(2-fluorophenoxy)-2-methylphenyl)(4-(((3R,6S)-6-(hydroxymethyl)tetrahydro-2H-pyran-3-yl)amino)-5-methoxy-1H-pyrrolo[2,3-b]pyridin-3-yl)methanone] showed an IC50 of 1 nM. `COc1cc(Oc2ccccc2F)ccc1C(=O)c1c[nH]c2ncc(OC)c(N[C@@H]3CC[C@@H](CO)OC3)c12` [Example 81, (4-(2-fluorophenoxy)-2-methoxyphenyl)(4-(((3R,6S)-6-(hydroxymethyl)tetrahydro-2H-pyran-3-yl)amino)-5-methoxy-1H-pyrrolo[2,3-b]pyridin-3-yl)methanone] gave an IC50 of 19 nM. `Cc1cc(Oc2ccccc2F)ccc1C(=O)c1c[nH]c2ncc(Cl)c(N[C@@H]3CC[C@@H](CO)OC3)c12` [Example 87, (5-chloro-4-(((3R,6S)-6-(hydroxymethyl)tetrahydro-2H-pyran-3-yl)amino)-1H-pyrrolo[2,3-b]pyridin-3-yl)(4-(2-fluorophenoxy)-2-methylphenyl)methanone] gave an IC50 of 17 nM. Compound `N#Cc1cnc2[nH]cc(C(=O)c3ccc(Oc4ccccc4F)cc3)c2c1N[C@@H]1CC[C@@H](CO)OC1` [Example 88, 3-(4-(2-fluorophenoxy)benzoyl)-4-(((3R,6S)-6-(hydroxymethyl)tetrahydro-2H-pyran-3-yl)amino)-1H-pyrrolo[2,3-b]pyridine-5-carbonitrile] has an IC50 of 99 nM. With `N#Cc1cnc2[nH]cc(C(=O)c3ccc(Oc4ccccc4F)cc3F)c2c1N[C@@H]1CC[C@@H](CO)OC1` [Example 90, 3-(2-fluoro-4-(2-fluorophenoxy)benzoyl)-4-(((3R,6S)-6-(hydroxymethyl)tetrahydro-2H-pyran-3-yl)amino)-1H-pyrrolo[2,3-b]pyridine-5-carbonitrile] the IC50 was 50 nM. `O=C(c1ccc(Oc2ccccc2F)cc1)c1c[nH]c2ncc(Cl)c(N[C@@H]3CC[C@@H](CO)OC3)c12` [Example 98, (5-chloro-4-(((3R,6S)-6-(hydroxymethyl)tetrahydro-2H-pyran-3-yl)amino)-1H-pyrrolo[2,3-b]pyridin-3-yl)(4-(2-fluorophenoxy)phenyl)methanone] showed an IC50 of 41 nM. With `O=C(c1ccc(Oc2ccccc2F)cc1F)c1c[nH]c2ncc(Cl)c(N[C@@H]3CC[C@@H](CO)OC3)c12` [Example 99, (5-chloro-4-(((3R,6S)-6-(hydroxymethyl)tetrahydro-2H-pyran-3-yl)amino)-1H-pyrrolo[2,3-b]pyridin-3-yl)(2-fluoro-4-(2-fluorophenoxy)phenyl)methanone] the IC50 was 24 nM. With `O=C(c1ccc(Oc2ccccc2F)cc1Cl)c1c[nH]c2ncc(Cl)c(N[C@@H]3CC[C@@H](CO)OC3)c12` [Example 100, (5-chloro-4-(((3R,6S)-6-(hydroxymethyl)tetrahydro-2H-pyran-3-yl)amino)-1H-pyrrolo[2,3-b]pyridin-3-yl)(2-chloro-4-(2-fluorophenoxy)phenyl)methanone] the IC50 was 67 nM. Compound `O=C(c1ccc(Oc2ccccc2F)cc1F)c1c[nH]c2nccc(N[C@@H]3CC[C@@H](CO)OC3)c12` [Example 102, (2-fluoro-4-(2-fluorophenoxy)phenyl)(4-(((3R,6S)-6-(hydroxymethyl)tetrahydro-2H-pyran-3-yl)amino)-1H-pyrrolo[2,3-b]pyridin-3-yl)methanone] has an IC50 of 7 nM. In the case of `Cc1cc(Oc2ccccc2F)ncc1C(=O)c1c[nH]c2nccc(N[C@@H]3CC[C@@H](CO)OC3)c12` [Example 103, (6-(2-fluorophenoxy)-4-methylpyridin-3-yl)(4-(((3R,6S)-6-(hydroxymethyl)tetrahydro-2H-pyran-3-yl)amino)-1H-pyrrolo[2,3-b]pyridin-3-yl)methanone], the IC50 is reported as 39 nM. `O=C(c1ccc(Oc2ccccc2F)cc1)c1c[nH]c2nccc(N[C@@H]3CC[C@@H](CO)OC3)c12` [Example 104, (4-(2-fluorophenoxy)phenyl)(4-(((3R,6S)-6-(hydroxymethyl)tetrahydro-2H-pyran-3-yl)amino)-1H-pyrrolo[2,3-b]pyridin-3-yl)methanone] was tested, and the IC50 was 23 nM. `COc1cc(Oc2ccccc2F)cnc1C(=O)c1c[nH]c2nccc(N[C@@H]3CC[C@@H](CO)OC3)c12` [Example 110, (5-(2-fluorophenoxy)-3-methoxypyridin-2-yl)(4-(((3R,6S)-6-(hydroxymethyl)tetrahydro-2H-pyran-3-yl)amino)-1H-pyrrolo[2,3-b]pyridin-3-yl)methanone] was tested, and the IC50 was 95 nM. `O=C(c1ccc(Oc2ccccc2F)cc1)c1c[nH]c2ncc(F)c(N[C@@H]3CC[C@@H](CO)OC3)c12` [Example 114, (5-fluoro-4-(((3R,6S)-6-(hydroxymethyl)tetrahydro-2H-pyran-3-yl)amino)-1H-pyrrolo[2,3-b]pyridin-3-yl)(4-(2-fluorophenoxy)phenyl)methanone] was tested, and the IC50 was 12 nM. `O=C(c1ccc(Oc2ccccc2F)cc1F)c1c[nH]c2ncc(F)c(N[C@@H]3CC[C@@H](CO)OC3)c12` [Example 115, (5-fluoro-4-(((3R,6S)-6-(hydroxymethyl)tetrahydro-2H-pyran-3-yl)amino)-1H-pyrrolo[2,3-b]pyridin-3-yl)(2-fluoro-4-(2-fluorophenoxy)phenyl)methanone] showed an IC50 of 5 nM. With `Cc1cc(Oc2ccccc2F)ncc1C(=O)c1c[nH]c2ncc(F)c(N[C@@H]3CC[C@@H](CO)OC3)c12` [Example 117, (5-fluoro-4-(((3R,6S)-6-(hydroxymethyl)tetrahydro-2H-pyran-3-yl)amino)-1H-pyrrolo[2,3-b]pyridin-3-yl)(6-(2-fluorophenoxy)-4-methylpyridin-3-yl)methanone] the IC50 was 69 nM. `O=C(c1ccc(Oc2ccccc2F)cc1Cl)c1c[nH]c2ncc(F)c(N[C@@H]3CC[C@@H](CO)OC3)c12` [Example 125, (2-chloro-4-(2-fluorophenoxy)phenyl)(5-fluoro-4-(((3R,6S)-6-(hydroxymethyl)tetrahydro-2H-pyran-3-yl)amino)-1H-pyrrolo[2,3-b]pyridin-3-yl)methanone] was tested, and the IC50 was 1 nM. With `Cc1cc(Oc2ccccc2F)ccc1C(=O)c1c[nH]c2ncc(F)c(N[C@@H]3CC[C@@H](CO)OC3)c12` [Example 126, (5-fluoro-4-(((3R,6S)-6-(hydroxymethyl)tetrahydro-2H-pyran-3-yl)amino)-1H-pyrrolo[2,3-b]pyridin-3-yl)(4-(2-fluorophenoxy)-2-methylphenyl)methanone] the IC50 was 4 nM. For `Cc1cc(Oc2ccccc2F)cc(F)c1C(=O)c1c[nH]c2nccc(N[C@@H]3CC[C@@H](CO)OC3)c12` [Example 130, (2-fluoro-4-(2-fluorophenoxy)-6-methylphenyl)(4-(((3R,6S)-6-(hydroxymethyl)tetrahydro-2H-pyran-3-yl)amino)-1H-pyrrolo[2,3-b]pyridin-3-yl)methanone], the IC50 was 36 nM. For `COc1cnc2[nH]cc(C(=O)c3c(C)cc(Oc4ccccc4F)cc3F)c2c1N[C@@H]1CC[C@@H](CO)OC1` [Example 132, (2-fluoro-4-(2-fluorophenoxy)-6-methylphenyl)(4-(((3R,6S)-6-(hydroxymethyl)tetrahydro-2H-pyran-3-yl)amino)-5-methoxy-1H-pyrrolo[2,3-b]pyridin-3-yl)methanone], the IC50 was 7 nM. For `COc1cnc2[nH]cc(C(=O)c3ccc(Oc4ccccc4)cc3C)c2c1N[C@@H]1CC[C@@H](CO)OC1` [Example 134, (4-(((3R,6S)-6-(hydroxymethyl)tetrahydro-2H-pyran-3-yl)amino)-5-methoxy-1H-pyrrolo[2,3-b]pyridin-3-yl)(2-methyl-4-phenoxyphenyl)methanone], the IC50 was 1 nM.
